From patent US8420640B2, “Methods of treating amyloid disease using analogs of 1-(4-nitrophenyl) piperazine” (Treventis Corporation, priority 2008, dated 2013)
Values belong to the molecule of their own block, whether it stands above or below them.

Columns and labels:
Aβ40 = target: T1, Aβ40 (Homo sapiens, UniProt P05067); assay: ThT functional Aβ 1-40 aggregation assay; assay type: biochemical; conditions: for IC50: 20 μM Aβ, 20 mM Tris pH 7.4, 150 mM NaCl, 1% DMSO, 37° C.; for Ratio: potency with respect to the compound of Example 7, 1=potency of that compound
T1 construct: Compounds Showing Activity Observed in a ThT Functional Aβ 1-40 Aggregation Assay
Experimental: Aβ40 (1.0 mg) was pre-treated in a 1.5 mL microfuge tube with HFIP (1 mL) and sonicated for 20 min to disassemble any pre-formed Aβ aggregates. The HFIP was removed with a stream of argon and the Aβ dissolved in Tris base (5.8 mL, 20 mM, pH ˜10). The pH was adjusted to 7.4 with concentrated HCl (˜10 μL) and the solution filtered using a syringe filter (0.2 μm) before being used.
(§1) The kinetic ThT assay for Aβ aggregation is similar to that of Chalifour et al (Chalifour et al, 2003, J. Biol. Chem. 278:34874-81). Briefly, pre-treated Aβ40 (40 μM in 20 mM Tris, pH 7.4), was diluted with an equal volume of 8 μM ThT in Tris (20 mM, pH 7.4, 300 mM NaCl). Aliquots of Aβ/ThT (200 μL) were added to wells of a black polystyrene 96-well plate, followed by 2 μL of a compound in DMSO (variable concentration), or DMSO alone (controls). Incubations were performed in triplicate and were taken to contain 20 μM Aβ, various concentration of compound in 20 mM Tris, pH 7.4, 150 mM NaCl, 1% DMSO. Plates were covered with clear polystyrene lids and incubated at 37° C. in a Tecan Genios microplate reader. Fluorescence readings (λex=450 nm, λem=480 nm) were taken every 15 min., after first shaking at high intensity for 15 s and allowing to settle for 10 s before each reading. Active compounds attenuated the increase in fluorescence over time that occurred in controls. By repeating this procedure over several concentrations, a mean inhibitory concentration (IC50) was measured, as given in the table below. The column “A-syn” represents a similar procedure measuring inhibition of alpha-synuclein aggregation. The column “ratio” is a reproducible assessment of potency with respect to the compound of Example 7, in which 1=potency of that compound: […]

alpha-synuclein = alpha-synuclein (Homo sapiens, UniProt P37840); assay: alpha-synuclein aggregation inhibition (procedure similar to the ThT assay); assay type: biochemical; conditions: inhibition of alpha-synuclein aggregation; read-out: A-syn (IC50/μM)
Experimental: as §1

T1 sequence (P05067 672-711 limits assumed): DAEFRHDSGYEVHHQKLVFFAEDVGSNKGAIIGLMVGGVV

SMILES: COc1ccc(C(=O)N2CCN(c3ccc([N+](=O)[O-])c(NCc4ccco4)c3)CC2)cc1OC
IC50 (Aβ40): > 20 µM

SMILES: CCOC(=O)C1CCN(c2ccc([N+](=O)[O-])cc2C(=O)c2ccc(Cl)cc2)CC1
IC50 (Aβ40): > 20 µM

SMILES: O=C(c1cccs1)N1CCN(c2ccc([N+](=O)[O-])c(-n3nc(-c4ccccc4)c4ccccc4c3=O)c2)CC1
IC50 (Aβ40): > 20 µM

SMILES: O=[N+]([O-])c1ccc(N2CCNCC2)cc1Nc1ccccc1
IC50 (Aβ40): 8.82 µM
Ratio (Aβ40): 0.54

SMILES: O=C(c1ccccc1)N1CCN(c2ccc([N+](=O)[O-])c(Oc3ccccc3)c2)CC1
IC50 (Aβ40): > 50 µM

SMILES: CN1CCN(c2ccc([N+](=O)[O-])c(Nc3ccccc3)c2)CC1
IC50 (Aβ40): 23.2 µM
Ratio (Aβ40): 0.42

SMILES: O=[N+]([O-])c1ccc(N2CCN(Cc3ccccc3)CC2)cc1Nc1ccccc1
IC50 (Aβ40): > 50 µM

SMILES: O=[N+]([O-])c1ccc(N2CCN(S(=O)(=O)c3ccccc3)CC2)cc1Nc1ccccc1
IC50 (Aβ40): > 50 µM

SMILES: O=[N+]([O-])c1ccc(N2CCCCC2)cc1Nc1ccccc1
IC50 (Aβ40): > 100 µM

SMILES: CS(=O)(=O)N1CCN(c2ccc([N+](=O)[O-])c(Nc3ccccc3)c2)CC1
IC50 (Aβ40): > 50 µM

SMILES: O=C(Nc1cc(N2CCN(C(=O)c3ccccc3)CC2)ccc1[N+](=O)[O-])c1ccccc1
IC50 (Aβ40): 178 µM
Ratio (Aβ40): 0.05

SMILES: CC(=O)Nc1ccc(N2CCN(C(=O)c3ccccc3)CC2)cc1Nc1ccccc1
Ratio (Aβ40): 0.21

SMILES: O=C(O)c1ccc(-c2ccc([N+](=O)[O-])c(NCc3ccccc3)c2)cc1
IC50 (Aβ40): 184 µM
Ratio (Aβ40): 0.02

SMILES: O=C(Nc1ccccc1)c1ccccc1-c1ccc([N+](=O)[O-])c(NCc2ccccc2)c1
IC50 (Aβ40): 152 µM
Ratio (Aβ40): 0.03

SMILES: O=C(Nc1ccccc1)c1ccc(-c2ccc([N+](=O)[O-])c(NCc3ccccc3)c2)cc1
IC50 (Aβ40): 217 µM
Ratio (Aβ40): 0.07

SMILES: O=C(Nc1cc([N+](=O)[O-])ccc1N1CCN(C(=O)c2ccccc2)CC1)c1ccccc1
IC50 (Aβ40): 1040 µM
Ratio (Aβ40): 0.01

SMILES: O=C(NCc1ccccc1)c1ccccc1-c1ccc([N+](=O)[O-])c(NCc2ccccc2)c1
IC50 (Aβ40): 631 µM
Ratio (Aβ40): 0.02

SMILES: O=C(O)c1ccc(N2CCN(C(=O)c3ccccc3)CC2)cc1NCc1ccccc1
IC50 (Aβ40): 189 µM
Ratio (Aβ40): 0.05

SMILES: NC(=O)c1ccc(N2CCN(C(=O)c3ccccc3)CC2)cc1NCc1ccccc1
IC50 (Aβ40): 265 µM
Ratio (Aβ40): 0.03

SMILES: COC(=O)c1ccc(N2CCN(C(=O)c3ccccc3)CC2)cc1NCc1ccccc1
IC50 (Aβ40): 174 µM
Ratio (Aβ40): 0.14

SMILES: O=C(Nc1ccccc1)c1cccc(-c2ccc([N+](=O)[O-])c(NCc3ccccc3)c2)c1
IC50 (Aβ40): 5730 µM
Ratio (Aβ40): 0

SMILES: O=C(NCc1ccccc1)c1cccc(-c2ccc([N+](=O)[O-])c(NCc3ccccc3)c2)c1
IC50 (Aβ40): 14900 µM
Ratio (Aβ40): 0

SMILES: O=C(Nc1ccccc1)C1CCN(c2ccc([N+](=O)[O-])c(NCc3ccccc3)c2)CC1
IC50 (Aβ40): 544 µM
Ratio (Aβ40): 0.05

SMILES: O=C(NCc1ccccc1)C1CCN(c2ccc([N+](=O)[O-])c(NCc3ccccc3)c2)CC1
IC50 (Aβ40): 975 µM
Ratio (Aβ40): 0.03

SMILES: CCN(CC)C(=O)c1ccc(N2CCN(C(=O)c3ccccc3)CC2)cc1NCc1ccccc1
IC50 (Aβ40): 361 µM
Ratio (Aβ40): 0.05

SMILES: Nc1cccc(N2CCN(C(=O)c3ccccc3)CC2)c1
IC50 (Aβ40): 428 µM
Ratio (Aβ40): 0.05

SMILES: O=C(c1ccccc1)N1CCN(c2cccc(Nc3ccccc3)c2)CC1
IC50 (Aβ40): 539 µM
Ratio (Aβ40): 0.05

SMILES: CN(C)c1ccc(N2CCN(C(=O)c3ccccc3)CC2)cc1N(C)c1ccccc1
IC50 (Aβ40): 148 µM
Ratio (Aβ40): 0.25

SMILES: COc1ccc(N2CCN(C(=O)c3ccccc3)CC2)cc1Nc1ccccc1
IC50 (Aβ40): 238 µM
Ratio (Aβ40): 0.04

SMILES: O=C(c1ccccc1)N1CCN(c2cccc([N+](=O)[O-])c2)CC1 [drawing 132]
IC50 (Aβ40): 196 µM
Ratio (Aβ40): 0.04

SMILES: O=C(c1ccccc1)N1CCN(c2cccc([N+](=O)[O-])c2)CC1 [drawing 151]
IC50 (Aβ40): 360 µM
Ratio (Aβ40): 0.06

The next lines start with the values.

IC50 (Aβ40): 4.03 µM
SMILES: CC(=O)N1CCN(c2ccc([N+](=O)[O-])c(N3CCc4ccccc4C3)c2)CC1

IC50 (Aβ40): 2.7 µM
SMILES: CCc1ccc(C(=O)N2CCN(c3ccc([N+](=O)[O-])c(N4CCOCC4)c3)CC2)cc1

IC50 (Aβ40): 2.1 µM
SMILES: O=C(c1ccccc1F)N1CCN(c2ccc([N+](=O)[O-])c(NCc3ccco3)c2)CC1

IC50 (Aβ40): 1.4 µM
SMILES: O=C(c1nnc[nH]1)N1CCN(c2ccc([N+](=O)[O-])c(NCc3ccc(Cl)cc3)c2)CC1

IC50 (Aβ40): 20 to 50 µM
SMILES: O=[N+]([O-])c1ccc(Br)cc1NCc1ccccc1

IC50 (Aβ40): 10 to 20 µM
Ratio (Aβ40): 0.09
IC50 (alpha-synuclein): 51 µM
SMILES: O=C(c1ccccc1)N1CCN(c2ccc([N+](=O)[O-])c(NCc3ccccc3)c2)CC1

IC50 (Aβ40): 25.8 µM
Ratio (Aβ40): 0.58
SMILES: CC(=O)N1CCN(c2ccc([N+](=O)[O-])c(NCc3ccccc3)c2)CC1

IC50 (Aβ40): 23 µM
Ratio (Aβ40): 0.40
SMILES: O=[N+]([O-])c1ccc(N2CCOCC2)cc1Nc1ccccc1

IC50 (Aβ40): 8.4 µM
Ratio (Aβ40): 0.72
SMILES: CN(C)C(=O)N1CCN(c2ccc([N+](=O)[O-])c(Nc3ccccc3)c2)CC1

IC50 (Aβ40): 39 µM
Ratio (Aβ40): 0.15
SMILES: CN(C)c1ccc([N+](=O)[O-])c(Nc2ccccc2)c1

IC50 (Aβ40): 9.64 µM
Ratio (Aβ40): 0.9
IC50 (alpha-synuclein): 5 µM
SMILES: CN(c1ccccc1)c1cc(N2CCN(C(=O)c3ccccc3)CC2)ccc1[N+](=O)[O-]

IC50 (Aβ40): 44 µM
Ratio (Aβ40): 0.19
SMILES: CC(=O)Nc1cc(N2CCN(C(=O)c3ccccc3)CC2)ccc1[N+](=O)[O-]

IC50 (Aβ40): 25 µM
Ratio (Aβ40): 0.88
IC50 (alpha-synuclein): 4 µM
SMILES: CN(C)c1cc(N2CCN(C(=O)c3ccccc3)CC2)ccc1[N+](=O)[O-]

IC50 (Aβ40): 41.9 µM
Ratio (Aβ40): 0.5
SMILES: O=C(O)c1ccccc1-c1ccc([N+](=O)[O-])c(NCc2ccccc2)c1

IC50 (Aβ40): 42 µM
Ratio (Aβ40): 0.11
SMILES: O=C(NCc1ccccc1)c1ccc(-c2ccc([N+](=O)[O-])c(NCc3ccccc3)c2)cc1

IC50 (Aβ40): 84 µM
Ratio (Aβ40): 0.11
SMILES: CN(C)C(=O)c1ccc(N2CCN(C(=O)c3ccccc3)CC2)cc1NCc1ccccc1

IC50 (Aβ40): 66.2 µM
Ratio (Aβ40): 0.13
SMILES: CCNC(=O)c1ccc(N2CCN(C(=O)c3ccccc3)CC2)cc1NCc1ccccc1

IC50 (Aβ40): 63 µM
Ratio (Aβ40): 0.38
SMILES: O=[N+]([O-])c1ccccc1NCc1ccccc1

IC50 (Aβ40): 18 µM
Ratio (Aβ40): 0.22
SMILES: O=C(c1ccccc1)N1CCN(c2ccc([N+](=O)[O-])cc2NCc2ccccc2)CC1

IC50 (Aβ40): 105 µM
Ratio (Aβ40): 0.04
SMILES: CC(=O)Nc1cc([N+](=O)[O-])ccc1N1CCN(C(=O)c2ccccc2)CC1

IC50 (Aβ40): 23 µM
Ratio (Aβ40): 0.89
SMILES: O=C(O)C1CCN(c2ccc([N+](=O)[O-])c(NCc3ccccc3)c2)CC1

IC50 (Aβ40): 92 µM
Ratio (Aβ40): 0.34
SMILES: O=C(c1ccccc1)N1CCN(c2ccc([N+](=O)[O-])cc2Nc2ccccc2)CC1

IC50 (Aβ40): 1.9 µM
Ratio (Aβ40): 9.9
SMILES: Nc1ccc(N2CCN(C(=O)c3ccccc3)CC2)cc1Nc1ccccc1

IC50 (Aβ40): 21.7 µM
Ratio (Aβ40): 0.88
SMILES: O=C(O)C1CCCN(c2ccc([N+](=O)[O-])c(NCc3ccccc3)c2)C1 (stereo not drawn)

IC50 (Aβ40): 26.6 µM
Ratio (Aβ40): 2.5
IC50 (alpha-synuclein): 45 µM
SMILES: Nc1ccc(-c2cccc(C(=O)O)c2)cc1Nc1ccccc1

IC50 (Aβ40): 107 µM
Ratio (Aβ40): 0.35
SMILES: Nc1ccc(N2CCN(C(=O)c3ccccc3)CC2)cc1N(Cc1ccccc1)c1ccccc1

IC50 (Aβ40): 15.5 µM
Ratio (Aβ40): 0.65
SMILES: CN(c1ccccc1)c1cc(N2CCN(C(=O)c3ccccc3)CC2)ccc1N

IC50 (Aβ40): 7.8 µM
Ratio (Aβ40): 1.3
SMILES: CNc1ccc(N2CCN(C(=O)c3ccccc3)CC2)cc1N(C)c1ccccc1

IC50 (Aβ40): 2.29 µM
Ratio (Aβ40): 4.4
SMILES: CNc1ccc(N2CCN(C(=O)c3ccccc3)CC2)cc1Nc1ccccc1

IC50 (Aβ40): 90 µM
Ratio (Aβ40): 0.1
SMILES: O=C(c1ccccc1)N1CCN(c2ccc(NCCO)c(Nc3ccccc3)c2)CC1

IC50 (Aβ40): 54.4 µM
Ratio (Aβ40): 0.17
SMILES: O=C(c1ccccc1)N1CCN(c2ccc(NCCN3CCOCC3)c(Nc3ccccc3)c2)CC1

IC50 (Aβ40): 9 µM
Ratio (Aβ40): 0.1
IC50 (alpha-synuclein): 11.6 µM
SMILES: CN1CCN(c2ccc([N+](=O)[O-])c(NCc3ccccc3)c2)CC1 [drawing 103]

IC50 (Aβ40): 2.5 µM
Ratio (Aβ40): 0.34
IC50 (alpha-synuclein): 142 µM
SMILES: CCCNc1cc(N2CCN(C(=O)c3ccccc3)CC2)ccc1[N+](=O)[O-] [drawing 105]

IC50 (Aβ40): 1.47 µM
Ratio (Aβ40): 2.85
IC50 (alpha-synuclein): 8 µM
SMILES: O=C(O)c1cccc(-c2ccc([N+](=O)[O-])c(NCc3ccccc3)c2)c1 [drawing 139]

IC50 (Aβ40): 9.23 µM
Ratio (Aβ40): 2.3
IC50 (alpha-synuclein): 10 µM
SMILES: O=C(O)c1cccc(-c2ccc([N+](=O)[O-])c(Nc3ccccc3)c2)c1 [drawing 149]

IC50 (Aβ40): 27 µM
Ratio (Aβ40): 0.8
IC50 (alpha-synuclein): 15 µM
SMILES: CN(C)c1cc([N+](=O)[O-])ccc1N1CCN(C(=O)c2ccccc2)CC1 [drawing 150]
